For experiment [1], the system named is Karashi A51G (RNA, aptamer) GGGCUGAAUGAAGAGCAGUAGCGAGUAGUUCACAAGCUUCGGCUUGUAGGGAGUAAAUGUGCAAAUCCGUAACUAGCCU
Put plainly: fluorescence enhancement. The settings on record: 10 mM Mg2+; 40 mM Tris-Cl pH 7.5, 37 °C; 0.1 μM RNA, 0.1 μM DMHBI.

Experiment [2] deals with Karashi G69A (RNA, aptamer) GGGCUGAAUGAAGAGCAGUAGCGAGUAGUUCACAAGCUUCGGCUUGUAGGAAGUAAAUGUGCAAAUCCAUAACUAGCCU
Put plainly: fluorescence enhancement. The following applies: 10 mM Mg2+; 40 mM Tris-Cl pH 7.5, 37 °C; 0.1 μM RNA, 0.1 μM DMHBI.

In experiment [3] the test system is fr-1 RNA + fr-2 RNA (RNA, aptamer) GGUUUCCCCGAAGAGCAGUAGCGAGUAGGGGCCCAGCU/GGCUGGGAGGAAGUAAAUGUGCAAAUCCGUAACUAAACU
Put plainly: fluorescence enhancement. The settings on record: 10 mM Mg2+; 40 mM Tris-Cl pH 7.5, 37 °C; 0.1 μM each RNA, 0.1 μM DMHBI.

Experiment [4] has as its system 17-3 RNA (RNA, aptamer) GGGAGACGCAACUGAAUGAAGAGCAGUAGCGAGUAGUUCACAAGAGCUGCUUCGGCAGGAUCUUGUAGGAAGUAAAUGUGCAAAUCCGUAACUAGUCGCGUCAC
Put plainly: fluorescence enhancement titration. The settings on record: 50 mM Mg2+; 40 mM Tris-Cl pH 7.5, 37 °C; 5 nM DMHBI titrated with RNA; Hill fit.

Experiment [5] deals with Jigarashi RNA (RNA, aptamer) GGUUUCCCCGAAGAGCAGUAGCGAGUAGGGGCCCAGCUUCGGCUGGGAGGAAGUAAAUGUGCAAAUCCGUAACUAAACU
Put plainly: fluorescence enhancement. The settings on record: 10 mM Mg2+; 40 mM Tris-Cl pH 7.5, 37 °C; 0.1 μM RNA, 0.1 μM DMHBI.

The test system of experiment [6] is 17-3minCP (RNA, aptamer) GGGCUUGUAGGAAGUAAAUGUGCAAAUCCGUAACUAGCUUCGGCUGAAUGAAGAGCAGUAGCGAGUAGUUCACAAGCCU
The experiment is described as follows: fluorescence enhancement. The settings on record: 10 mM Mg2+; 40 mM Tris-Cl pH 7.5, 37 °C; 0.1 μM RNA, 0.1 μM DMHBI.

Experiment [7] concerns Karashi (17-3min RNA) (RNA, aptamer) GGGCUGAAUGAAGAGCAGUAGCGAGUAGUUCACAAGCUUCGGCUUGUAGGAAGUAAAUGUGCAAAUCCGUAACUAGCCU
Put plainly: fluorescence enhancement. The following applies: 10 mM Mg2+; 40 mM Tris-Cl pH 7.5, 37 °C; 0.1 μM RNA, 0.1 μM DMHBI.

The test system of experiment [8] is m1 mutant of 17-3min RNA (RNA, aptamer) GGGCUGUUUGAAGAGCAGUAGCGAGUAGAACACAAGCUUCGGCUUGUAGGAAGUAAAUGUGCAAAUCCGUAACUAGCCU
Put plainly: fluorescence enhancement. The following applies: 10 mM Mg2+; 40 mM Tris-Cl pH 7.5, 37 °C; 0.1 μM RNA, 0.1 μM DMHBI.

Experiment [9] relates to m3 mutant of Karashi RNA (RNA, aptamer) GGGCUGCCUGAAGAGCAGUAGCGAGUAGGGCACAAGCUUCGGCUUGUAGGAAGUAAAUGUGCAAAUCCGUAACUAGCCU
Put plainly: fluorescence enhancement. The settings on record: 10 mM Mg2+; 40 mM Tris-Cl pH 7.5, 37 °C; 0.1 μM RNA, 0.1 μM DMHBI.

The Kd is the concentration at which binding is half-saturated. For `COc1cc(/C=C2\N=C(C)N(C)C2=O)cc(OC)c1O`, the binding result in experiment [1], in experiment [2], in experiment [3], in [5], in [6] and in experiment [7] was “yes” each time. Further, the binding result in experiment [8] and in [9] was “yes” in each case. Further, in [4], the equilibrium dissociation constant (Kd) came out at 0.043 µM.

For the origin of these results see paper PMC12029786 (2025).
